This assay has as its system sialomucin content in the saliva. Kind of assay: Effect of promoting sialomucin secretion: sialomucin content in rat saliva. It counts as in vivo, SD rats. The settings on record: 7th day of experimental diet containing 1% of the substance. As to the method: Seven-week-old male SD rats (manufactured by Charles River Laboratories, Japan, Inc) were raised under conditions involving humidity of 60%, room temperature of 24° C., and light-dark (12 hour/12 hour) control. All the rats were preliminarily raised for 1 week with a standard diet and then divided into 3 groups each containing 12 individuals. These groups were allowed to freely take their respective experimental diets and raised for 1 week. Rat saliva was collected on the 7th day after the administration of experimental diets. A sialomucin content in the saliva was measured by high-performance liquid chromatography. […] In this context, a sialomucin content in the saliva was measured by the following method: 0.2 ml of a Nembutal solution was intramuscularly injected to rats fasted for 2 hours or longer. After anesthesia, a solution of pilocarpine hydrochloride serving as a saliva secretion promoter was intramuscularly injected thereto. […] A sialomucin content in the sialomucin fraction was quantified with a Sialic Acid Fluorescence Labeling Kit (Takara Bio Inc.). […] Free N-acetyl sialic acid or O-acetylated sialic acid was reacted at 55° C. for 2.5 hours by the addition of a DMB reagent as a fluorescence labeling agent and then quantified by high-performance liquid chromatography.

Sialomucin content data for one substance are collected here from patent US8486916B2, “Medicine, food and drink or feed containing sphingomyelin” (Megmilk Snow Brand Co., Ltd., priority 2005, dated 2013).

In turn, sphingomyelin showed a Sialomucin content of 25.2 ± 2.9 µg/µL.
